Experimental data as given in patent US20240300973A1, “MODULATORS OF FPR1 AND METHODS OF USING THE SAME” (BIOFRONT THERAPEUTICS (BEIJING) CO., LTD., priority 2021, published 2024).

Target: T1, FPR1 (UniProt P21462)
T1 sequence (P21462 1-350): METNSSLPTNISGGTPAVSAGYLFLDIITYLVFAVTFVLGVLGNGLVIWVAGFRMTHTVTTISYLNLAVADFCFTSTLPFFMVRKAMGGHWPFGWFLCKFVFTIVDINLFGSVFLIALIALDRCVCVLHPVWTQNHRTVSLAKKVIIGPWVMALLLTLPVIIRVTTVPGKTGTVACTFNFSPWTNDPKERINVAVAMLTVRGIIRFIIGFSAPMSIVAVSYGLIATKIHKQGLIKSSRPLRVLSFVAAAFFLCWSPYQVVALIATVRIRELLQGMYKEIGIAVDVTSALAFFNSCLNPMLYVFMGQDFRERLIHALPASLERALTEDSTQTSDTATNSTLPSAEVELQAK
Test: fMLP-FPR1 mediated intracellular calcium signaling assay in FPR1-overexpressing 293T cells
Assay type: cell-based, human or mouse
Conditions: inhibition of fMLP-stimulated intracellular calcium change; hFPR1 or mFPR1 overexpressing 293T cells; 10 min pre-incubation; INDO-1 AM, FACS; read-out: IC50 (nM), potency in calcium signaling assay
Experimental: The effects of the compounds of this disclosure on regulating the FPR1-mediated cell signaling were measured by monitoring the cellular calcium level change, as illustrated by the exemplary examples in Table 2. The dose responses of the illustrated examples are reported categorically using the following ranking criteria: *** (IC50≤100 nM); ** (IC50≥100 to ≤1000 nM); * (IC50≥1000 to ≤10,000 nM); N.D.—not detected.
The coding DNA sequence (CDS) of human FPR1 (NM_001193306) and mouse FPR1 (NM_013521) were cloned and inserted to the lentivirus vector GV367 (Vector information: • http://www.genechem.com.cn/index/supports/tool_search.html?keywords=GV367) under the conduction of pCMV promoter. 293T cells were cultured in H-DMEM supplemented with 10% FBS and 1% penicillin—streptomycin (PS) at 37° C. in 5% CO2 Incubator. […] The overexpression of human or mouse FPR1 in 293 T cells were detected by immunostaining with anti-mouse or human FPR1 antibodies (Biolegend or Antibody Online). […]
Cultured hFPR1 or mFPR1 overexpressing 293T cells were labeled with 1 μM INDO-1 AM calcium sensor dye (eBioscience) for 30 min at 37° C. […] The cytoplasmic calcium levels were then measured by FACS Aria III at 37° C. prior to and after the stimulation of fMLP. […] The change of intracellular calcium was calculated as follow: (basal value-minimum value)/basal value×100%. […]

Cc1ccc(O)c(-c2onc3c2C(c2ccc(C(F)(F)F)cc2)N(C2CCOCC2)C3=O)c1 (racemic) [Compound 1, rac-3-(2-hydroxy-5-methylphenyl)-5-(tetrahydro-2H-pyran-4-yl)-4-(4-(trifluoromethyl)phenyl)-4,5-dihydro-6H-pyrrolo[3,4-c]isoxazol-6-one] was tested, and the IC50 was 1000 to 10000 nM.
In the case of Cc1ccc(O)c(-c2noc3c2C(c2ccc(C(F)(F)F)cc2)N(C2CCOCC2)C3=O)c1 (racemic) [Compound 2, rac-3-(2-hydroxy-5-methylphenyl)-5-(tetrahydro-2H-pyran-4-yl)-4-(4-(trifluoromethyl)phenyl)-4,5-dihydro-6H-pyrrolo[3,4-d]isoxazol-6-one], the IC50 is reported as 100 to 1000 nM.
